Laboratory results reported in patent publication US11878965B2, “Inhibitors of peptidylarginine deiminases” (Gilead Sciences, Inc., priority 2020, dated 2024).

Biological target: human PAD4 (Homo sapiens (Human), UniProt Q9UM07)
Assay: In Vitro PAD4 BAEE Biochemical Assay
Settings: geometric mean of multiple experiments
Summary of the method: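 Deimination of BAEE substrate (3 mM) measured as ammonia via o-phthalaldehyde–DTT isoindole fluorescence, 405/535 nm. Tag-free bacterially expressed human PAD4 at 5 nM with 2 mM calcium chloride, pH 7.6 MOPS buffer, 30 min compound preincubation then 2 h reaction, both at 25 °C.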

[1] = recombinant PAD4 5 nM, 2 mM calcium chloride, 3 mM BAEE substrate
[2] = human PAD4, BAEE substrate, 5 nM PAD4, 2 mM calcium chloride, 3 mM BAEE

human PAD4, sequence (Q9UM07 2-663): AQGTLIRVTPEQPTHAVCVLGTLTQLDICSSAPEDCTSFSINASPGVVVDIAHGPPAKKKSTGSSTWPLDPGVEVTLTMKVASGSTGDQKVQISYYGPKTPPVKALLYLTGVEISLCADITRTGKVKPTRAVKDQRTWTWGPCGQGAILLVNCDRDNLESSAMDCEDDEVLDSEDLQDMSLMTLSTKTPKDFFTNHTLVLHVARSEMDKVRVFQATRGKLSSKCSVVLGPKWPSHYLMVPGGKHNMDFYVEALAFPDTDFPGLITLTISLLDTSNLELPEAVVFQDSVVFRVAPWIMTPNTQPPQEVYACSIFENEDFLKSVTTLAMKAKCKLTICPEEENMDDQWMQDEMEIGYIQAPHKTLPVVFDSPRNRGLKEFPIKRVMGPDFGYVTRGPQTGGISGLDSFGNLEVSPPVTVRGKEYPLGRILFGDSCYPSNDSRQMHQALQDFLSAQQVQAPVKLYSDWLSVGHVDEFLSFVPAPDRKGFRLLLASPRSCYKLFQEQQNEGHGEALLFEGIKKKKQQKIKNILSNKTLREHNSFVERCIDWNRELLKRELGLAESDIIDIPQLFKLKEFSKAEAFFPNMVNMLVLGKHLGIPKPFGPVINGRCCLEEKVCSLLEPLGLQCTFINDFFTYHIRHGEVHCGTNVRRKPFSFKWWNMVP

Structure (SMILES)	IC50 [1]	IC50 [2]
C[C@@H](NC(=O)c1cnn(C2CC2)c1)c1ccc2cc(-c3nc4cc(C(=O)N5C[C@H](N)[C@@H]6CC[C@H]5C6)cc(F)c4n3C3CC3)n(CC3CC3)c2n1 [Example 231, N-((R)-1-(2-(5-((1S,4R,5R)-4-amino-2-azabicyclo[3.2.1]octane-2-carbonyl)-1-cyclopropyl-7-fluoro-1H-benzo[d]imidazol-2-yl)-1-(cyclopropylmethyl)-1H-pyrrolo[2,3-b]pyridin-6-yl)ethyl)-1-cyclopropyl-1H-pyrazole-4-carboxamide]	55.9 nM	–
CCN(c1ccc2cc(-c3nc4cc(C(=O)N5CC(N)CCC5C)cc(OC)c4n3C)n(CC3CC3)c2n1)S(C)(=O)=O (stereo not drawn) [Example 29, N-(2-(5-(5-amino-2-methylpiperidine-1-carbonyl)-7-methoxy-1-methyl-1H-benzo[d]imidazol-2-yl)-1-(cyclopropylmethyl)-1H-pyrrolo [2,3-b]pyridin-6-yl)-N-ethylmethanesulfonamide]	–	173 nM
COc1cc(C(=O)N2CCC[C@@H](N)C2)cc2nc(-c3cc4ccc(N5CCCNS5(=O)=O)nc4n3CC3CC3)n(C)c12 [Example 107, (R)-(3-aminopiperidin-1-yl)(2-(1-(cyclopropylmethyl)-6-(1,1-dioxido-1,2,6-thiadiazinan-2-yl)-1H-pyrrolo[2,3-b]pyridin-2-yl)-7-methoxy-1-methyl-1H-benzo[d]imidazol-5-yl) methanone]	–	538 nM
CCN(c1ccc2cc(-c3nc4cc(C(=O)N5CCC[C@@H](N)[C@H]5C)cc(OC)c4n3CC3COC3)n(CC3CC3)c2n1)S(C)(=O)=O [Example 37, N-(2-(5-((2R,3R)-3-amino-2-methylpiperidine-1-carbonyl)-7-methoxy-1-(oxetan-3-ylmethyl)-1H-benzo[d]imidazol-2-yl)-1-(cyclopropylmethyl)-1H-pyrrolo [2,3-b]pyridin-6-yl)-N-ethylmethanesulfonamide]	–	235 nM
COc1cc(C(=O)N2[C@@H]3CC[C@@H](N)[C@H]2CC3)cc2nc(-c3cc4ccc(N(C(F)F)S(C)(=O)=O)nc4n3CC3CC3)n(C3CC3)c12 [Example 50, N-(2-(5-((1R,2R,5R)-2-amino-8-azabicyclo[3.2.1]octane-8-carbonyl)-1-cyclopropyl-7-methoxy-1H-benzo[d]imidazol-2-yl)-1-(cyclopropylmethyl)-1H-pyrrolo [2,3-b]pyridin-6-yl)-N-(difluoromethyl) methanesulfonamide]	–	145 nM
COc1cc(C(=O)N2[C@H]3CC[C@@H]2[C@H](N)C3)cc2nc(-c3cc4ccc([C@@H](C)NC(=O)C56CC(F)(C5)C6)cc4n3CC3CC3)n(C)c12 [Example 133, N-((R)-1-(2-(5-((1R,2R,4S)-2-amino-7-azabicyclo[2.2.1]heptane-7-carbonyl)-7-methoxy-1-methyl-1H-benzo[d]imidazol-2-yl)-1-(cyclopropylmethyl)-1H-indol-6-yl)ethyl)-3-fluorobicyclo[1.1.1]pentane-1-carboxamide]	–	32.2 nM
COc1cccc(F)c1C(=O)N[C@H](C)c1ccc2cc(-c3nc4cc(C(=O)N5[C@H]6CC[C@@H]5[C@H](N)C6)cc(OC)c4n3C3CC3)n(CC3CC3)c2c1 [Example 149, N-((R)-1-(2-(5-((1R,2R,4S)-2-amino-7-azabicyclo[2.2.1]heptane-7-carbonyl)-1-cyclopropyl-7-methoxy-1H-benzo[d]imidazol-2-yl)-1-(cyclopropylmethyl)-1H-indol-6-yl)ethyl)-2-fluoro-6-methoxybenzamide]	–	95.4 nM
COc1cc(C(=O)N2CCC[C@@H](N)C2)cc2nc(-c3cc4ccc(N(C)S(=O)(=O)C5CC5)nc4n3CC3CC3)n(C)c12 [Example 8, (R)-N-(2-(5-(3-aminopiperidine-1-carbonyl)-7-methoxy-1-methyl-1H-benzo[d]imidazol-2-yl)-1-(cyclopropylmethyl)-1H-pyrrolo [2,3-b]pyridin-6-yl)-N-methylcyclopropanesulfonamide]	–	190 nM
COc1cc(C(=O)N2[C@H]3CC[C@@H]2[C@H](N)C3)cc2nc(-c3cc4ccc(N5[C@@H](C)CCCS5(=O)=O)nc4n3CC3CC3)n(C3CC3)c12 [Example 102, ((1R,2R,4S)-2-amino-7-azabicyclo[2.2.1]heptan-7-yl)(1-cyclopropyl-2-(1-(cyclopropylmethyl)-6-((S)-3-methyl-1,1-dioxido-1,2-thiazinan-2-yl)-1H-pyrrolo[2,3-b]pyridin-2-yl)-7-methoxy-1H-benzo[d]imidazol-5-yl)methanone]	–	42 nM
COc1cc(C(=O)N2C[C@H](N)CC[C@@H]2C)cc2nc(-c3cc4ccc(-c5cccnc5N5CCNCC5)nc4n3CC3CC3)n(C)c12 [Example 264, ((2S,5R)-5-amino-2-methylpiperidin-1-yl)(2-(1-(cyclopropylmethyl)-6-(2-(piperazin-1-yl)pyridin-3-yl)-1H-pyrrolo[2,3-b]pyridin-2-yl)-7-methoxy-1-methyl-1H-benzo[d]imidazol-5-yl)methanone]	–	1870 nM

Continued, values first:

IC50 [1]	IC50 [2]	Structure (SMILES)
58 nM	–	COc1cc(C(=O)N2C[C@H](N)[C@@H]3CC[C@H]2C3)cc2nc(-c3cc4ccc([C@@H](C)NC(=O)c5cnn(C6CC6)c5)nc4n3CC3CC3)n(C)c12 [Example 319, N-((R)-1-(2-(5-((1S,4R,5R)-4-amino-2-azabicyclo[3.2.1]octane-2-carbonyl)-7-methoxy-1-methyl-1H-benzo[d]imidazol-2-yl)-1-(cyclopropylmethyl)-1H-pyrrolo[2,3-b]pyridin-6-yl)ethyl)-1-cyclopropyl-1H-pyrazole-4-carboxamide]
–	61 nM	COc1cc(C(=O)N2C[C@H](N)[C@@H]3CC[C@H]2C3)cc2nc(-c3cc4ccc([C@@H](C)NC(=O)C(C)(C)C)nc4n3CC3CC3)n(C)c12 [Example 221, N-((R)-1-(2-(5-((1S,4R,5R)-4-amino-2-azabicyclo[3.2.1]octane-2-carbonyl)-7-methoxy-1-methyl-1H-benzo[d]imidazol-2-yl)-1-(cyclopropylmethyl)-1H-pyrrolo[2,3-b]pyridin-6-yl)ethyl)pivalamide]
–	39400 nM	COc1cc(C(=O)N[C@H]2CNC[C@@H]2NC(C)=O)cc2nc(-c3cc4ccc(N(C(F)F)S(C)(=O)=O)nc4n3CC3CC3)n(C)c12 [Example 70, N-((3S,4S)-4-acetamidopyrrolidin-3-yl)-2-(1-(cyclopropylmethyl)-6-((N-(difluoromethyl)methyl)sulfonamido)-1H-pyrrolo[2,3-b]pyridin-2-yl)-7-methoxy-1-methyl-1H-benzo[d]imidazole-5-carboxamide]
72 nM	–	COc1cc(C(=O)N2C[C@H](N)[C@@H]3CC[C@H]2C3)cc2nc(-c3cc4ccc([C@@H](C)NC(=O)C(C)(C)OC)nc4n3CC3CC3)n(C)c12 [Example 321, N-((R)-1-(2-(5-((1S,4R,5R)-4-amino-2-azabicyclo[3.2.1]octane-2-carbonyl)-7-methoxy-1-methyl-1H-benzo[d]imidazol-2-yl)-1-(cyclopropylmethyl)-1H-pyrrolo[2,3-b]pyridin-6-yl)ethyl)-2-methoxy-2-methylpropanamide]
–	158 nM	C[C@@H](NC(=O)C(C)(C)C)c1ccc2cc(-c3nc4cc(C(=O)N[C@H]5CNCC[C@@H]5F)c(F)cc4n3C)n(CC3CC3)c2n1 [Example 216, 2-(1-(cyclopropylmethyl)-6-((R)-1-pivalamidoethyl)-1H-pyrrolo[2,3-b]pyridin-2-yl)-6-fluoro-N-((3S,4S)-4-fluoropiperidin-3-yl)-1-methyl-1H-benzo[d]imidazole-5-carboxamide]
